Experiments:
[1] = biological target: human Somatostatin 4 receptor (SSTR4) (Homo sapiens (Human), UniProt P31391); experiment: cAMP assay with human somatostatin 4 receptor (hSSTR4 expressing H4 cells); type: cell-based; settings: cAMP assay, read-out: SSTR4 agonism EC50
Description: Camp Assay Method Description for cAMP Assay with Human Somatostatin 4 Receptor
The activation of the SSTR4 receptor (Gi coupled) causes an inhibition of intracellular cAMP after stimulation with Forskolin, which can be quantifiable by use of a suitable assay Kit and an adequate plate reader. This technique is used to characterize pharmacological effects of the SSTR4 receptor agonists by use of hSSTR4 expressing H4 cells.
Compounds are dissolved and diluted in DMSO. The final test solution contains 1% DMSO. […] Cells are centrifuged and suspended in assay buffer (incl. 1:100 diluted Alexa antibody).
For the assay 5 μl of a cell suspension (approximately 5000 cells/well)—incl. Alexa antibody (diluted 1:100) are added into a 384 well MTP microtitre plate excepting one row or column (depending on the plate layout), which is reserved for the standard curve. Then 2 μl of compound sample is added as concentration response curve (e.g. 1e-5 M to 6e-10 M), usually in triplicates. Each assay contains incubations with vehicle controls instead of compound as controls for non-inhibited cAMP generation (100% CTL; ‘high values’) and incubations with 1 μM Somatosatin as controls for full inhibition and background (0% CTL; […]). […] Then the plates are shaken briefly and incubated for 60 min at room temperature. After 60 min 10 μl of the detection mix is added into all wells followed by an additional incubation period of 1 h. The plates are read in a suitable plate reader.
From this ratio, cAMP concentrations are calculated from standard curve and the EC50 is estimated by least square curve fit program.
The EC50 values were obtained with the aid of the above described cAMP ASSAY.

[2] = Metabolic stability in pooled human liver microsomes (half-life); type: in vitro ADME; settings: 1 μM test compound; for half-life at 1 μM: pooled human liver microsomes, pH 7.6, 37° C., read-out: Half-life t1/2; for Half-life t1/2: 37° C.
Description: The metabolic stability of the compounds according to the invention may be investigated as follows:
The metabolic degradation of the test compound is assayed at 37° C. with pooled human liver microsomes. The final incubation volume of 100 μl per time point contains TRIS buffer pH 7.6 at room temperature (0.1 M), magnesium chloride (5 mM), microsomal protein (1 mg/mL) and the test compound at a final concentration of 1 μM. Following a short preincubation period at 37° C., the reactions are initiated by addition of beta-nicotinamide adenine dinucleotide phosphate, reduced form (NADPH, 1 mM), and terminated by transferring an aliquot into solvent after different time points. After centrifugation (10000 g, 5 min), an aliquot of the supernatant is assayed by LC-MS/MS for the amount of parent compound. The half-life is determined by the slope of the semi-logarithmic plot of the concentration-time profile.

Sequence of human Somatostatin 4 receptor (SSTR4) (P31391 whole entry): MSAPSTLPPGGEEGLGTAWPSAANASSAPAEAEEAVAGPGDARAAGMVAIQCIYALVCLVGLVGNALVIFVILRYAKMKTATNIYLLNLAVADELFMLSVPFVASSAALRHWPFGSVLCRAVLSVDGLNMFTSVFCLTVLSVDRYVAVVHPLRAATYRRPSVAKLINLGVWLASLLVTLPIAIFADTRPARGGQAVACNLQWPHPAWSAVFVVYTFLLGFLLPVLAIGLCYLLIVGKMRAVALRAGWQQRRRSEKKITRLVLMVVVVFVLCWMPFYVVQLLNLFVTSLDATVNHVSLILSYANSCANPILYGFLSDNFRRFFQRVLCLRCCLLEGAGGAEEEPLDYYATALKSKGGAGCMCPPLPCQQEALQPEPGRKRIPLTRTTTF

SMILES	EC50 [1] [nM]	half-life at 1 μM [2] [h]	Half-life t1/2 [2] [h]
CC(C)(COc1cccnc1C(F)(F)F)NC(=O)[C@H]1[C@@H]2CNC[C@@H]21.Cl [Example 18]	20.4	> 2.17	
CC(C)(NC(=O)[C@H]1[C@@H]2CNC[C@@H]21)c1cnc2ccccn12.Cl [Example 20]	8.5	> 2.17	
CC(C)(NC(=O)[C@H]1[C@@H]2CNC[C@@H]21)c1ncccc1C(F)(F)F.Cl [Example 23]	17.5	> 2.17	
Cn1nc(C(C)(C)NC(=O)[C@H]2[C@@H]3CNC[C@@H]32)c2cccnc21 [Example 32]	9.9	> 2.17	
Cc1cc(C(C)(C)NC(=O)[C@H]2[C@@H]3CNC[C@@H]32)c2ccccc2n1 [Example 33]	4.6	> 2.17	
Cc1ccncc1OCC(C)(C)NC(=O)[C@H]1[C@@H]2CNC[C@@H]21 [Example 38]	27.8	> 2.17	
CCc1ccccc1OCC(C)(C)NC(=O)[C@H]1[C@@H]2CNC[C@@H]21.Cl [Example 39]	3	> 2.17	
Cc1ncccc1OCC(C)(C)NC(=O)[C@H]1[C@@H]2CNC[C@@H]21.Cl [Example 44]	361	> 2.17	
Cc1nc(C(C)(C)NC(=O)[C@H]2[C@@H]3CNC[C@@H]32)n2ccccc12 [Example 45]	1.2	> 2.17	
Cc1cc(F)cnc1OCC(C)(C)NC(=O)[C@H]1[C@@H]2CNC[C@@H]21 [Example 48]	3.7	> 2.17	
CC(C)(NC(=O)[C@H]1[C@@H]2CNC[C@@H]21)c1noc2ccccc12 [Example 51]	7.4	> 2.17	
CC(C)(COc1ncccc1C(F)(F)F)NC(=O)[C@H]1[C@@H]2CNC[C@@H]21 [Example 52]	2.4	> 2.17	
CC(C)(COc1cnccc1C1CC1)NC(=O)[C@H]1[C@@H]2CNC[C@@H]21 [Example 57]	16.3	> 2.17	
CC(C)(COc1nnccc1C(F)(F)F)NC(=O)[C@H]1[C@@H]2CNC[C@@H]21 [Example 58]	22	> 2.17	
CC(C)(COc1ncccc1C1CC1)NC(=O)[C@H]1[C@@H]2CNC[C@@H]21 [Example 64]	2	> 2.17	
Cc1ccnnc1OCC(C)(C)NC(=O)[C@H]1[C@@H]2CNC[C@@H]21.Cl [Example 67]	66.3	> 2.17	
CC(C)(NC(=O)[C@H]1[C@@H]2CNC[C@@H]21)c1ncc2ccccn12.Cl [Example 68]	4.7	> 2.17	
Cc1nc(C(C)NC(=O)[C@H]2[C@@H]3CNC[C@@H]32)c2cccc(C)c2n1 (some centres unmarked) [Example 162]	128		
Cc1ccc(C(C)(C)NC(=O)[C@H]2[C@@H]3CNC[C@@H]32)c(C)n1 [Example 172]	520		
Cc1cc(C)c(C(C)(C)NC(=O)[C@H]2[C@@H]3CNC[C@@H]32)cn1 [Example 177]	9.1		
Cc1cccn2c(C(C)(NC(=O)[C@H]3[C@@H]4CNC[C@@H]43)C3CC3)ncc12 (some centres unmarked) [Example 183]	9.9		
Cc1cccn2c(C(C)(C)NC(=O)[C@H]3[C@@H]4CNC[C@@H]43)ccc12 [Example 184]	0.4		

The remaining lines, values ahead:

EC50 [1] [nM]	half-life at 1 μM [2] [h]	Half-life t1/2 [2] [h]	SMILES
19.2	> 2.17		CC(NC(=O)[C@H]1[C@@H]2CNC[C@@H]21)c1nn(C)c2ccccc12 (single isomer, unassigned) [Example 113]
2.1	> 2.17		CC(NC(=O)[C@H]1[C@@H]2CNC[C@@H]21)c1nn(C)c2c(Cl)cccc12 (single isomer, unassigned) [Example 116]
3.2	> 2.17		Cc1cccc2c(C(C)NC(=O)[C@H]3[C@@H]4CNC[C@@H]43)nn(C)c12 (single isomer, unassigned) [Example 119]
56.5	> 2.17		O=C(NC1(Cc2ccccc2C(F)(F)F)CC1)[C@H]1[C@@H]2CNC[C@@H]21 [Example 2]
2.8	> 2.17		CC(C)(NC(=O)[C@H]1[C@@H]2CNC[C@@H]21)c1ccc(Cl)c(Cl)c1.Cl [Example 8]
10.7	> 2.17		C[C@H](NC(=O)[C@H]1[C@@H]2CNC[C@@H]21)c1cccc2ccccc12 [Example 10]
0.6	> 2.17		CC(C)(COc1ccccc1C(F)(F)F)NC(=O)[C@H]1[C@@H]2CNC[C@@H]21.Cl [Example 12]
2.4	> 2.17		Cc1cc(F)ccc1OCC(C)(C)NC(=O)[C@H]1[C@@H]2CNC[C@@H]21.Cl [Example 13]
7.8	> 2.17		Cc1cc(Cl)ccc1OCC(C)(C)NC(=O)[C@H]1[C@@H]2CNC[C@@H]21.Cl [Example 15]
1	> 2.17		Cc1cc(C#N)ccc1OCC(C)(C)NC(=O)[C@H]1[C@@H]2CNC[C@@H]21.Cl [Example 17]
11.3	> 2.17		CC(C)(NC(=O)[C@H]1[C@@H]2CNC[C@@H]21)C1CCc2ccccc2O1.Cl (some centres unmarked) [Example 28]
1.9	> 2.17		CC(C)(NC(=O)[C@H]1[C@@H]2CNC[C@@H]21)c1nc(C(F)(F)F)c2ccccn12.Cl [Example 31]
14.7	> 2.17		CC(C)(COc1ccccc1Cl)NC(=O)[C@H]1[C@@H]2CNC[C@@H]21.Cl [Example 42]
185	> 2.17		Cc1cccc(OCC(C)(C)NC(=O)[C@H]2[C@@H]3CNC[C@@H]32)c1 [Example 43]
9.8	0.783		CC(C)(COc1cnc(Cl)c2ccccc12)NC(=O)[C@H]1[C@@H]2CNC[C@@H]21 [Example 53]
64.3	> 2.17		Cc1ccccc1OCC(C)NC(=O)[C@H]1[C@@H]2CNC[C@@H]21.Cl (some centres unmarked) [Example 59]

EC50 [1] [nM]	half-life at 1 μM [2] [h]	Half-life t1/2 [2] [h]	SMILES
76.9	> 2.17		Cl.Cn1nccc1OCC(C)(C)NC(=O)[C@H]1[C@@H]2CNC[C@@H]21 [Example 60]
29.8		>2.17	Cc1cc(C2CC2)ccc1OCC(C)(C)NC(=O)[C@H]1[C@@H]2CNC[C@@H]21 [Example 65]
5.7	> 2.17		CC(C)(COc1ccccc1C1CC1)NC(=O)[C@H]1[C@@H]2CNC[C@@H]21 [Example 70]
26.9	2		Cc1ccccc1OCC(C)(C)NC(=O)[C@H]1[C@@H]2CN(C)C[C@@H]21.Cl [Example 71]
1.6	0.6		Cn1nc(C(C)(C)NC(=O)[C@H]2[C@@H]3CNC[C@@H]32)c2c(F)cccc21 [Example 74]
0.4	> 2.17		Cn1nc(C(C)(C)NC(=O)[C@H]2[C@@H]3CNC[C@@H]32)c2ccc(F)cc21 [Example 75]
	> 2.17		Cn1nc(C(C)(C)NC(=O)[C@H]2[C@@H]3CNC[C@@H]32)c2cccc(Cl)c21 [Example 106]
	> 2.17		Cc1cccc2c(C(C)(C)NC(=O)[C@H]3[C@@H]4CNC[C@@H]43)n(C)nc12 [Example 108]
		>2.17	CC(C)(NC(=O)[C@H]1[C@@H]2CNC[C@@H]21)c1n[nH]c2c(C(F)(F)F)cccc12 [Example 110]
313			O=C(NC1(c2nc3ccc(Cl)cc3[nH]2)CCOC1)[C@H]1[C@@H]2CNC[C@@H]21 (some centres unmarked) [Example 169]
237			CC(C)(NC(=O)[C@H]1[C@@H]2CNC[C@@H]21)C1COc2ccccc21 (some centres unmarked) [Example 173]
1.2			Cn1nc(C(C)(C)NC(=O)[C@H]2[C@@H]3CNC[C@@H]32)c2c1CCCC2 [Example 176]
22.4			CC(C)(NC(=O)[C@H]1[C@@H]2CNC[C@@H]21)C1CCOc2ccccc21 (some centres unmarked) [Example 178]
41.3			CC(C)(NC(=O)[C@H]1[C@@H]2CNC[C@@H]21)c1ncc2n1CCCC2 [Example 181]
68.5			Cc1cccn2c(C3(NC(=O)[C@H]4[C@@H]5CNC[C@@H]54)CCOCC3)ncc12 [Example 182]

Source: patent US9789082B2, “Somatostatin receptor subtype 4 (SSTR4) agonists” (Centrexion Therapeutics Corporation, priority 2013, dated 2017)
